“Also recorded” adds a separate entry of the source.
Legend:
[1] = test system: F9-RARE-lacZ reporter cell line; assay: F9 reporter gene assay; assay type: cell-based; conditions: for potency in activating the reporter system compared with atRA and TTNPB: versus atRA and TTNPB
From the text: Reporter gene assay. […] Data were normalized for total protein using the method set forth in Bradford M M, Anal Biochem, 72:248-254 (1976).

RXRgamma = target: T1, RXRgamma (Mus musculus, UniProt P28705); assay: Nuclear RXR competition binding assay ([3H]-9-cis-RA, hydroxylapatite); set-up: species or system murine; conditions: for competition binding to RXRs: compared with 4-HPTTNPB, studies 'may be performed'
T1 construct: made in house; host or cells: insect cells infected with baculovirus expression vectors; nuclear extracts
T1 sequence (P28705 1-463): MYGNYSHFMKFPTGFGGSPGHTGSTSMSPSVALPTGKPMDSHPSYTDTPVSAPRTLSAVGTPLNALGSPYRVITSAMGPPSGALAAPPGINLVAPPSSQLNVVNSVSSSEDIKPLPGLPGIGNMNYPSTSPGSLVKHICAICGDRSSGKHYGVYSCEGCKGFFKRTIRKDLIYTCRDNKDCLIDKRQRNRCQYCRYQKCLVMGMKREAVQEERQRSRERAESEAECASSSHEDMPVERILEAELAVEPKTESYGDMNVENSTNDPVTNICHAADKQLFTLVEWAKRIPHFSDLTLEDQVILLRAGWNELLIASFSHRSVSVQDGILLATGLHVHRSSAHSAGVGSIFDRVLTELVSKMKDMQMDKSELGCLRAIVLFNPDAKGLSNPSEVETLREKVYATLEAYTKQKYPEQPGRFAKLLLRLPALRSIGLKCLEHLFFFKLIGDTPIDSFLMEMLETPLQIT
Procedure: Nuclear Retinoid Receptor (RAR/RXR) Binding. Competition of retinoids with [^3H]-all-trans-RA for binding to RARalpha, RARbeta and RARgamma and with [^3H]-9-cis-RA for binding to RXRgamma was determined using an in vitro ligand binding assay. […] Radiolabeled ligands were added to receptor-containing extracts in the absence and presence of increasing concentrations of competing ligands followed by separating ligand bound to the receptor from that free in solution using a hydroxylapatite (HAP) assay.

[2] = test system: T2, RARalpha, RARbeta and RARgamma; assay: Nuclear RAR competition binding assay ([3H]-all-trans-RA, hydroxylapatite); set-up: species or system human RARalpha and RARgamma, murine RARbeta; conditions: for competition binding to RARs: compared with 4-HPTTNPB, studies 'may be performed'; for competition with [3H]-all-trans-RA for binding to the RARs: RAR types alpha, beta and gamma, stated collectively
T2 construct: fused on or other part: RARalpha was expressed as a fusion protein in E. coli
Procedure: Nuclear Retinoid Receptor (RAR/RXR) Binding. Competition of retinoids with [^3H]-all-trans-RA for binding to RARalpha, RARbeta and RARgamma and with [^3H]-9-cis-RA for binding to RXRgamma was determined using an in vitro ligand binding assay. (See Clagett-Dame et al., Methods for generating and characterizing retinoid receptors from E. coli and insect cell expression systems, Meth. Enzymol., 282:13-14 (1997)). Recombinant human RARalpha was expressed as a fusion protein in E. coli (see Repa J J et al., All-trans retinol is a ligand for the retinoic acid receptors, Proc Natl Acad Sci USA, 90:7293-7297 (1993)). […] Radiolabeled ligands were added to receptor-containing extracts in the absence and presence of increasing concentrations of competing ligands followed by separating ligand bound to the receptor from that free in solution using a hydroxylapatite (HAP) assay.

MCF-7 cells [3] = assay: Cell growth inhibition assay; assay type: cell-based, human; conditions: for cell growth inhibition, MCF-7: compared with 4-HPTTNPB, assays 'may be performed'; for response of MCF-7 cells (live cells / cell death): single treatment, 72 hours
Procedure: (§1) Cell growth inhibition and TUNEL assays. […] The cells were plated at 50,000 cells/well in 12-well plates. The wells were dosed with varying amounts of retinoid compounds. At cell harvest, propidium iodide was added. Half of the cells were used to determine the number of live and dead cells after adding fluorescein diacetate, which yields a fluorescent product upon cleavage by metabolically active cells. The other half were fixed in 4% paraformaldehyde, dried on aminosilane coated slides and used to determine TUNEL and propidium iodide staining.
Cell culture. The human mammary carcinoma cell line, MCF-7, may be obtained from the American Type Culture Collection (Mannassas, Va.). MCF-7 cells may be maintained in DMEM (Sigma-Aldrich) medium supplemented with 4 g/L glucose, 3.7 g/L sodium bicarbonate and 10% fetal calf serum.
Assay for cell growth inhibition. Cells are plated in flasks/wells of a tissue culture dish. After 24 hours, cells are dosed with a compound of the present invention at varying concentrations, and after 72 hours, the cells are removed from flasks/plates and counted. Fluorescence (due to staining of cells with fluorescein diacetate) was used to count the number of live cells. Phase-contrast microscopy is used to count the total number of cells.

pregnant rats = assay: Assessment of compound teratogenicity; assay type: in vivo; conditions: for teratogenic activity / fetal malformations: 0.66 micomoles/kg single oral bolus at E9.25, fetuses at E21.5
Procedure: Assessment of Compound Teratogenicity. Female rats (Harlan Sprague-Dawley, Madison, Wis. approximately 200 to 250 g in weight) were maintained on normal laboratory rat chow and mated with normal rats of the same strain. Pregnant rats were given a single oral bolus dose of compound dissolved in Wesson® corn oil. Each dose was 60-100 μL. The doses were given at day 9.25. Each […] was maintained under standard laboratory conditions until euthanasia at embryonic day 21.5. The fetuses were removed. Fetuses with a heartbeat were determined to be alive. The number of live and dead fetuses were recorded. The number of resorption sites was also recorded. The live fetuses were examined for gross external malformations. All animals were maintained in accordance with protocol approved by the University of Wisconsin-Madison animal care committee.

[4] = test system: DMBA-induced mammary tumors; assay: Inhibition of DMBA-induced mammary tumors; assay type: in vivo; conditions: studies 'may be performed'
MCF-7 cells [5] = assay: TUNEL assay (DNA fragmentation); assay type: cell-based, human; conditions: for induction of apoptosis / DNA fragmentation: MCF-7 cells, 72 hours, 4-HPTTNPB and 4-HBTTNPB at the highest doses; for activity in DNA fragmentation study: compared with 4-HPTTNPB, studies 'may be performed'
Procedure: as §1

[6] = TTNPB: at concentrations above 10^-6 M, 4-HPTTNPB and 4-HPR: at the highest concentration

Row | Structure (SMILES) | competition binding to RXRs (RXRgamma) | competition binding to RARs [2] | cell growth inhibition, MCF-7 (MCF-7 cells [3]) | toxicity in DMBA-induced mammary tumor studies [4] | induction of apoptosis / DNA fragmentation (MCF-7 cells [5]) | competition with [3H]-9-cis-RA for binding to RXRgamma (RXRgamma; [6]) | competition with [3H]-all-trans-RA for binding to the RARs [2] | response of MCF-7 cells (live cells / cell death) (MCF-7 cells [3]) | also measured
1 | CC1=C(/C=C/C(C)=C/C=C/C(C)=C/C(=O)O)C(C)(C)CCC1 [atRA, all-trans retinoic acid, reference compound] |  |  |  |  |  |  |  |  | activity in the F9 reporter assay (beta-galactosidase) [1]: highly active
2 | C/C(=C\c1ccc(C(=O)Cc2ccc(O[C@@H]3O[C@H](CO)[C@@H](O)[C@H](O)[C@H]3O)cc2)cc1)c1ccc2c(c1)C(C)(C)CCC2(C)C [Compound 33, E-4-[2-methyl-2-(1,1,4,4-tetramethyl-1,2,3,4-tetrahydronaphth-7-yl)-vinyl]-phenyl-2′-(4′-beta-D-glucopyranosyloxyphenyl)-1′-ethanone] | no better at binding to RXRs than 4-HPTTNPB | only slightly better at binding to RARs than 4-HPTTNPB | inhibits growth of MCF-7 cells in a dose-dependent manner | little, if any, toxicity |  |  |  |  | teratogenic potential / embryotoxicity (pregnant rats; rat, in vivo): little, if any, observable embrotoxicity
3 | C/C(=C\c1ccc(C(=O)Nc2ccc(O)cc2)cc1)c1ccc2c(c1)C(C)(C)CCC2(C)C [4-HPTTNPB, E-4-[2-methyl-2-(1,1,4,4-tetramethyl-1,2,3,4-tetrahydronapth-7-yl)-vinyl]-benzoic acid 4-hydroxyanilide] |  |  |  |  | very active | almost no competition | competed poorly; also recorded: did not show any significant binding | dose-dependent decrease | potency in activating the reporter system compared with atRA and TTNPB [1]: around 100 fold less potent; teratogenic activity / fetal malformations (pregnant rats): all profoundly malformed; percentage of the fetuses at embryonic day 21.5 either dead or resorbed (pregnant rats; 0.66 micomoles/kg single oral bolus at E9.25, three pregnant rats): > 80%
4 | C/C(=C\c1ccc(C(=O)O)cc1)c1ccc2c(c1)C(C)(C)CCC2(C)C [TTNPB, E-4-[2-methyl-2-(1,1,4,4-tetramethyl-1,2,3,4-tetrahydronapth-7-yl)-vinyl]-benzoic acid, reference compound] |  |  |  |  | ineffective | very weak competition | very effective | nearly ineffective | activity in the F9 reporter assay (beta-galactosidase) [1]: highly active; competition with [3H]-9-cis-RA for binding to RXRgamma (RXRgamma; at 10^-4.5 M): 44%
5 | CC1=C(/C=C/C(C)=C/C=C/C(C)=C/C(=O)Nc2ccc(O)cc2)C(C)(C)CCC1 [4-HPR, N-(4-hydroxyphenyl) retinamide, reference compound] |  |  |  |  | high degree of apoptosis | almost no competition | only weak competition | cell death | potency in activating the reporter system compared with atRA and TTNPB [1]: approximately 1000 fold less potent; potency of competition for RAR binding compared with TTNPB ([2]; versus TTNPB): 3-4 orders of magnitude less potent
6 | CCCc1cc2c(cc1/C(C)=C/c1ccc(C(=O)Nc3ccc(O)cc3)cc1)C(C)(C)CCC2(C)C [Compound 12, E-4-[2-methyl-2-(6-propyl-1,1,4,4-tetramethyl-1,2,3,4-tetrahydronapth-7-yl)-vinyl]-benzoic acid 4-hydroxyanilide] | only slight binding competition | bind only very weakly | inhibits growth of MCF-7 cells in a dose-dependent manner |  |  |  |  |  | 
7 | C/C(=C\c1ccc(C(=O)Cc2ccc(OC3OC(C(=O)O)C(O)C(O)C3O)cc2)cc1)c1ccc2c(c1)C(C)(C)CCC2(C)C (stereo not shown) [Compound 25] | no better at binding to RXRs than 4-HPTTNPB | only slightly better at binding to RARs than 4-HPTTNPB | inhibits growth of MCF-7 cells in a dose-dependent manner; also recorded: less active than 4-HPTTNPB | little, if any, toxicity |  |  |  |  | activity in DNA fragmentation study (MCF-7 cells [5]): less active than 4-HPTTNPB; teratogenic potential / embryotoxicity (pregnant rats; 'the data will demonstrate'): little, if any, observable embrotoxicity
8 | C/C(=C\c1ccc(C(=O)Cc2ccc(O)cc2)cc1)c1ccc2c(c1)C(C)(C)CCC2(C)C [4-HBTTNPB, E-4-[2-methyl-2-(1,1,4,4-tetramethyl-1,2,3,4-tetrahydronapth-7-yl)-vinyl]-phenyl-2′-(4′-hydroxyphenyl)-1′-ethanone] | only slight binding competition | bind only very weakly |  | little, if any, toxicity | very active |  | competed poorly | dose-dependent decrease | activity in DNA fragmentation study (MCF-7 cells [5]): activity similar to 4-HPTTNPB; cell growth inhibition, MCF-7 (MCF-7 cells [3]; listed as 23): inhibits growth of MCF-7 cells in a dose-dependent manner; teratogenic activity / fetal malformations (pregnant rats): devoid of any observable teratogenic activity; teratogenic potential / embryotoxicity (pregnant rats; 'the data will demonstrate'): little, if any, observable embrotoxicity; number of dead and resorbed fetuses compared with vehicle group (pregnant rats; rat, in vivo, po): did not differ
9 | C=C(c1ccc(C(=O)O)cc1)c1cc2c(cc1C)C(C)(C)CCC2(C)C [LGD1069, reference compound] |  |  |  |  |  | very effective |  |  | 

Source: patent US7968602B2, “4-[(E)-2-(5,6,7,8-tetrahydro-5,5,8,8-tetramethyl-2-napthalenyl)-1-propenyl]benzoic acid analogs and method of manufacture and use thereof” (Wisconsin Alumni Research Foundation, priority 2005, dated 2011)
